Test results from patent publication US20050232864A1, “Method for phenotyping using nmr spectroscopy” (priority 2002, published 2005).

Experiment: Pharmacokinetic parameters of CBZ in rabbit plasma by DNP-NMR compared with LC-MS (Example 3)
Assay type: in vivo
Details: single oral dose 40 mg/kg CBZ
Procedure: Samples were collected at 8 time points over a period of 24 hours, at the following times: 0 min., 15 min., 30 min., 1 hour, 2 hours, 4 hours, 8 hours and 24 hours. 2 ml blood was withdrawn from the marginal ear vein of the rabbit. Plasma was extracted from the blood and divided into two samples, one for LC-MS analysis and one for DNP and NMR analysis (˜0.5 ml for each).
Rabbit plasma (400 μl) in a 2 ml vial was treated with acetonitrile (750 μl) and sonicated with a sonication probe for 15 sec. Another portion of acetonitrile (750 μl) was added to the vial so as to rinse the probe, the vial was closed, agitated briefly on a whirly mixer and centrifuged at 14 000 rev/min for about 1 min. The supernatant was transferred into a fresh vial in portions and evaporated in a ThermoSavant SPD 111V speedvac. Towards the end of the evaporation, 20 μl of an aqueous stock solution of EDTA (1 μg/μl) was added and the mixture was evaporated to dryness. 50 μl of the stock solvent as described below was added to the solid residue, and the added weight was noted. The sample was sonicated for 15 min to dissolve the residue and centrifuged to force the whole sample to the bottom of the vial. The vial was weighed together with a pipette tip and the sample was collected into the pipette tip and dispensed drop wise into liquid nitrogen. The used vial and pipette tip was weighed again to assess the actual weight of the sample. The cooled sample pellets were placed in a sample cup and administered into a DNP-polariser.
The volume of the radical is not accounted for in the calculation.
The sample was dissolved in heated (60° C.) methanol-D4 containing 75 μg EDTA per 7.0 ml of methanol. The dissolved sample was collected in a 10 mm NMR-tube fitted with a NMR-spinner and kept in a portable magnetic field (12 mT). The sample was moved from the polariser into the NMR magnet as expediently as possible making sure that the tube is protected in the portable magnetic field during the transport.
A 1D ^13C NMR-spectrum was acquired with a 10 mm Varian direct detection probe at 100.393 MHz (400 MHz ^1H). […] The NMR acquisition parameters were a spectral width of 40 kHz (400 ppm), an acquisition time of 2.5 s, and a pulse angle of 90. […] The spectrum was acquired 5 s after dissolution was initiated.
First, the reference ^13C-NMR signal from HP001 was analysed by selecting one Lorentzian line shape model function to describe the signal. The algorithm calculates phase, amplitude, damping (or line width in frequency domain) and frequency. The first order phase was set fixed at zero. […] All phases of the peaks were zero with respect to the main phase and a Lorentzian line shape model function was assumed. […] The first order phase was fixed at zero, the zero order phase was determined by the algorithm.
0.11 μg, 0.33 μg, 0.5 μg, 1.0 μg, 1.5 μg, and 2.0 μg were spiked into […] rabbit plasma, incubated at 37° C. and prepared as described in the section on sample preparation.

[1] = Table 2, footnote: E-CBZ levels calculated, DNP-NMR
[2] = Table 2, footnote: E-CBZ levels calculated, LC-MS

Substance: carbamazepine [CBZ]
- AUC0.5-8h (Table 1, CBZ levels, DNP-NMR): 52 µM·h
- Cmax (Table 1, CBZ levels, DNP-NMR): 12 µM
- AUC0.5-8h (Table 1, CBZ levels, LC-MS): 60 µM·h
- Cmax (Table 1, CBZ levels, LC-MS): 13.3 µM
- AUC0.5-8h [1]: 52 µM·h
- Cmax [1]: 12 µM
- AUC0.5-8h [2]: 60 µM·h
- Cmax [2]: 13.3 µM
